In ChEMBL document CHEMBL1151010, “A case study of combinatorial libraries: Endothelin receptor antagonist hexapeptides” (Bioorg Med Chem Lett, 1995) one finds inhibition and IC50 data, which are given here for 35 compounds.

One may read the inhibition as the change of the read-out against control, counted positive when it falls. In general, IC50 refers to the point on the concentration scale where inhibition reaches its midpoint.

Square brackets hold non-standard residues; d marks the D form. Peptide text beside a SMILES is read from it. dGly(5-dibenzosuberyl) = N[C@@H](C(=O)O)C1c2ccccc2CCc2ccccc21

In one test the target is T1, Endothelin-1 receptor (Sus scrofa) (UniProt Q29010).
T1 sequence (whole entry): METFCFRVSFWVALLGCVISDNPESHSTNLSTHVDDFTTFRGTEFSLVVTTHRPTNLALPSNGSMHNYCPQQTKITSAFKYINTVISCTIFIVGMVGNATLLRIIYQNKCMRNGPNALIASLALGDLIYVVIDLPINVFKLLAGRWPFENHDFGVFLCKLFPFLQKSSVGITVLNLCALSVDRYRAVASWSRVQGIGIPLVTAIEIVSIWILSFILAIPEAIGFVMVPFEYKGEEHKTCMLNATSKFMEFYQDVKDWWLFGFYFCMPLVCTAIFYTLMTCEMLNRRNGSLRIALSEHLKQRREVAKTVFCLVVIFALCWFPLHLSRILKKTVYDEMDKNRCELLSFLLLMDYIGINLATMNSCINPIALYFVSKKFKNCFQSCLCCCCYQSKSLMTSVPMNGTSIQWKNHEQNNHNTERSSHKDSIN
The test is described as follows: (§1) Inhibition of endothelin (ET-A) binding to porcine heart membranes. Details: concentration or dose not given beside the values. The conditions noted are these: Membrane, concentration not given here.
On to `CC[C@H](C)[C@H](NC(=O)[C@H](CO)NC(=O)[C@H](CC(=O)O)NC(=O)[C@H](CC(C)C)NC(=O)[C@H](NC(C)=O)C1c2ccccc2CCc2ccccc21)C(=O)N[C@@H](Cc1c[nH]c2ccccc12)C(=O)O`, for which the inhibition worked out at 0%.

Turning to `CC[C@H](C)[C@H](NC(=O)[C@H](CC(=O)O)NC(=O)[C@H](CC(=O)O)NC(=O)[C@H](CC(C)C)NC(=O)[C@H](NC(C)=O)C1c2ccccc2CCc2ccccc21)C(=O)N[C@@H](Cc1c[nH]c2ccccc12)C(=O)O`, the inhibition amounted to 0%.

Turning to `CC[C@H](C)[C@H](NC(=O)[C@H](CCC(N)=O)NC(=O)[C@H](CC(=O)O)NC(=O)[C@H](CC(C)C)NC(=O)[C@H](NC(C)=O)C1c2ccccc2CCc2ccccc21)C(=O)N[C@@H](Cc1c[nH]c2ccccc12)C(=O)O`, the inhibition is 12%.

The compound `CC[C@H](C)[C@H](NC(=O)[C@H](C)NC(=O)[C@H](CC(=O)O)NC(=O)[C@H](CC(C)C)NC(=O)[C@H](NC(C)=O)C1c2ccccc2CCc2ccccc21)C(=O)N[C@@H](Cc1c[nH]c2ccccc12)C(=O)O` displayed an inhibition of 47%.

For the compound `CC[C@H](C)[C@H](NC(=O)[C@@H]1CCCN1C(=O)[C@H](CC(=O)O)NC(=O)[C@H](CC(C)C)NC(=O)[C@H](NC(C)=O)C1c2ccccc2CCc2ccccc21)C(=O)N[C@@H](Cc1c[nH]c2ccccc12)C(=O)O`, the inhibition was 0%.

Compound `CC[C@H](C)[C@H](NC(=O)[C@@H](NC(=O)[C@H](CC(=O)O)NC(=O)[C@H](CC(C)C)NC(=O)[C@H](NC(C)=O)C1c2ccccc2CCc2ccccc21)[C@H](C)O)C(=O)N[C@@H](Cc1c[nH]c2ccccc12)C(=O)O` registered an inhibition of 12%.

With `CC[C@H](C)[C@H](NC(=O)[C@H](CCCCN)NC(=O)[C@H](CC(=O)O)NC(=O)[C@H](CC(C)C)NC(=O)[C@H](NC(C)=O)C1c2ccccc2CCc2ccccc21)C(=O)N[C@@H](Cc1c[nH]c2ccccc12)C(=O)O`, the inhibition was 0%.

Regarding `CC[C@H](C)[C@H](NC(=O)[C@H](Cc1ccccc1)NC(=O)[C@H](CC(=O)O)NC(=O)[C@H](CC(C)C)NC(=O)[C@H](NC(C)=O)C1c2ccccc2CCc2ccccc21)C(=O)N[C@@H](Cc1c[nH]c2ccccc12)C(=O)O` (Ac-[dGly(5-dibenzosuberyl)]LDFIW-OH), the inhibition turned out to be 12%.

In turn, `CC[C@H](C)[C@H](NC(=O)[C@H](Cc1ccc(O)cc1)NC(=O)[C@H](CC(=O)O)NC(=O)[C@H](CC(C)C)NC(=O)[C@H](NC(C)=O)C1c2ccccc2CCc2ccccc21)C(=O)N[C@@H](Cc1c[nH]c2ccccc12)C(=O)O` showed an inhibition of 9%.

In turn, `CC[C@H](C)[C@H](NC(=O)[C@H](CCC(=O)O)NC(=O)[C@H](CC(=O)O)NC(=O)[C@H](CC(C)C)NC(=O)[C@H](NC(C)=O)C1c2ccccc2CCc2ccccc21)C(=O)N[C@@H](Cc1c[nH]c2ccccc12)C(=O)O` returned an inhibition of 0%.

Compound `CC[C@H](C)[C@H](NC(=O)[C@H](CCCN=C(N)N)NC(=O)[C@H](CC(=O)O)NC(=O)[C@H](CC(C)C)NC(=O)[C@H](NC(C)=O)C1c2ccccc2CCc2ccccc21)C(=O)N[C@@H](Cc1c[nH]c2ccccc12)C(=O)O` registered an inhibition of 0%.

As for `CC[C@H](C)[C@H](NC(=O)[C@H](CC(=O)O)NC(=O)[C@H](CC(C)C)NC(=O)[C@H](NC(C)=O)C1c2ccccc2CCc2ccccc21)C(=O)N[C@H](C(=O)N[C@@H](Cc1c[nH]c2ccccc12)C(=O)O)[C@@H](C)CC` (Ac-[dGly(5-dibenzosuberyl)]LDIIW-OH), the inhibition amounted to 62%.

In the case of `CC[C@H](C)[C@H](NC(=O)[C@H](Cc1c[nH]cn1)NC(=O)[C@H](CC(=O)O)NC(=O)[C@H](CC(C)C)NC(=O)[C@H](NC(C)=O)C1c2ccccc2CCc2ccccc21)C(=O)N[C@@H](Cc1c[nH]c2ccccc12)C(=O)O`, the inhibition turned out to be 12%.

`CC[C@H](C)[C@H](NC(=O)[C@H](CC(C)C)NC(=O)[C@H](CC(=O)O)NC(=O)[C@H](CC(C)C)NC(=O)[C@H](NC(C)=O)C1c2ccccc2CCc2ccccc21)C(=O)N[C@@H](Cc1c[nH]c2ccccc12)C(=O)O` registered an inhibition of 9%.

Compound `CC[C@H](C)[C@H](NC(=O)[C@H](Cc1c[nH]c2ccccc12)NC(=O)[C@H](CC(=O)O)NC(=O)[C@H](CC(C)C)NC(=O)[C@H](NC(C)=O)C1c2ccccc2CCc2ccccc21)C(=O)N[C@@H](Cc1c[nH]c2ccccc12)C(=O)O` gave an inhibition of 0%.

A further test addresses T2, Endothelin-1 receptor (Sus scrofa, UniProt Q29010).
T2 sequence (Q29010 whole entry): T1 sequence (whole entry)
The description is as §1. Also on record: species or system Membrane.
Conditions: not given
In turn, `CC[C@H](C)[C@H](NC(=O)CNC(=O)[C@@H](NC(=O)[C@H](CC(C)C)NC(=O)[C@H](NC(C)=O)C1c2ccccc2CCc2ccccc21)[C@@H](C)O)C(=O)N[C@@H](Cc1c[nH]c2ccccc12)C(=O)O` came in with a 50% inhibitory concentration (IC50) of 350 nM.

As to `CC[C@H](C)[C@H](NC(=O)[C@H](C)NC(=O)[C@H](CC(=O)O)NC(=O)[C@H](CC(C)C)NC(=O)[C@H](NC(C)=O)C1c2ccccc2CCc2ccccc21)C(=O)N[C@@H](Cc1c[nH]c2ccccc12)C(=O)O`, the half-inhibitory concentration (IC50) was found to be 30 nM.

Regarding `CC[C@H](C)[C@H](NC(=O)CNC(=O)[C@H](CO)NC(=O)[C@H](CC(C)C)NC(=O)[C@H](NC(C)=O)C1c2ccccc2CCc2ccccc21)C(=O)N[C@@H](Cc1c[nH]c2ccccc12)C(=O)O`, the IC50 amounted to 380 nM.

A further test deals with T1, Endothelin-1 receptor (Sus scrofa). The test is described as §1. Details: concentration or dose not given beside the values. The conditions noted are these: Membrane, concentration not given here.
`CC[C@H](C)[C@H](NC(=O)CNC(=O)[C@H](CCCN=C(N)N)NC(=O)[C@H](CC(C)C)NC(=O)[C@H](NC(C)=O)C1c2ccccc2CCc2ccccc21)C(=O)N[C@@H](Cc1c[nH]c2ccccc12)C(=O)O` gave an inhibition of 27%.

Turning to `CC[C@H](C)[C@H](NC(=O)CNC(=O)[C@H](C)NC(=O)[C@H](CC(C)C)NC(=O)[C@H](NC(C)=O)C1c2ccccc2CCc2ccccc21)C(=O)N[C@@H](Cc1c[nH]c2ccccc12)C(=O)O`, the inhibition was found to be 62%.

Consider `CC[C@@H](C)[C@H](NC(=O)[C@H](CC(C)C)NC(=O)[C@H](NC(C)=O)C1c2ccccc2CCc2ccccc21)C(=O)NCC(=O)N[C@H](C(=O)N[C@@H](Cc1c[nH]c2ccccc12)C(=O)O)[C@@H](C)CC`, for which the inhibition is 22%.

Take `CC[C@H](C)[C@H](NC(=O)CNC(=O)[C@H](CCSC)NC(=O)[C@H](CC(C)C)NC(=O)[C@H](NC(C)=O)C1c2ccccc2CCc2ccccc21)C(=O)N[C@@H](Cc1c[nH]c2ccccc12)C(=O)O`: the inhibition turned out to be 61%.

`CC[C@H](C)[C@H](NC(=O)CNC(=O)[C@H](Cc1c[nH]cn1)NC(=O)[C@H](CC(C)C)NC(=O)[C@H](NC(C)=O)C1c2ccccc2CCc2ccccc21)C(=O)N[C@@H](Cc1c[nH]c2ccccc12)C(=O)O` registered an inhibition of 56%.

For the compound `CC(=O)N[C@@H](C(=O)N[C@@H](CC(C)C)C(=O)N[C@@H](CO)C(=O)NCC(=O)N[C@H](C(=O)N[C@@H](Cc1c[nH]c2ccccc12)C(=O)O)C(C)C)C1c2ccccc2CCc2ccccc21`, the inhibition was found to be 65%.

In turn, `CC[C@H](C)[C@H](NC(=O)CNC(=O)[C@H](CC(C)C)NC(=O)[C@H](CC(C)C)NC(=O)[C@H](NC(C)=O)C1c2ccccc2CCc2ccccc21)C(=O)N[C@@H](Cc1c[nH]c2ccccc12)C(=O)O` gave an inhibition of 34%.

Regarding `CC[C@H](C)[C@H](NC(=O)CNC(=O)[C@H](Cc1ccccc1)NC(=O)[C@H](CC(C)C)NC(=O)[C@H](NC(C)=O)C1c2ccccc2CCc2ccccc21)C(=O)N[C@@H](Cc1c[nH]c2ccccc12)C(=O)O`, the inhibition turned out to be 42%.

For the compound `CC[C@H](C)[C@H](NC(=O)CNC(=O)[C@@H]1CCCN1C(=O)[C@H](CC(C)C)NC(=O)[C@H](NC(C)=O)C1c2ccccc2CCc2ccccc21)C(=O)N[C@@H](Cc1c[nH]c2ccccc12)C(=O)O`, the inhibition is 7%.

`CC[C@H](C)[C@H](NC(=O)CNC(=O)[C@H](CCCCN)NC(=O)[C@H](CC(C)C)NC(=O)[C@H](NC(C)=O)C1c2ccccc2CCc2ccccc21)C(=O)N[C@@H](Cc1c[nH]c2ccccc12)C(=O)O` returned an inhibition of 16%.

The next test deals with T2, Endothelin-1 receptor. The test is described as follows: Antagonist activity against ET-A from porcine heart membranes. Type of test: functional, tissue-based.
Conditions: not given
Turning to `CC[C@H](C)[C@H](NC(=O)[C@H](CC(=O)O)NC(=O)[C@H](C)NC(=O)[C@H](NC(C)=O)C1c2ccccc2CCc2ccccc21)C(=O)N[C@H](C(=O)N[C@@H](Cc1c[nH]c2ccccc12)C(=O)O)[C@@H](C)CC`, the IC50 was 6 nM.

In turn, `CC[C@H](C)[C@H](NC(=O)[C@H](CC(=O)O)NC(=O)[C@H](CC(=O)O)NC(=O)[C@H](NC(C)=O)C1c2ccccc2CCc2ccccc21)C(=O)N[C@H](C(=O)N[C@@H](Cc1c[nH]c2ccccc12)C(=O)O)[C@@H](C)CC` returned an IC50 of 11 nM.

`CC[C@H](C)[C@H](NC(=O)[C@@H](NC(=O)[C@H](CC(=O)O)NC(=O)[C@H](CCC(N)=O)NC(=O)[C@H](NC(C)=O)C1c2ccccc2CCc2ccccc21)C(C)(C)C)C(=O)N[C@@H](Cc1c[nH]c2ccccc12)C(=O)O` gave an IC50 of 5 nM.

Compound `CC[C@H](C)[C@H](NC(=O)[C@H](CC(=O)O)NC(=O)[C@H](CO)NC(=O)[C@H](NC(C)=O)C1c2ccccc2CCc2ccccc21)C(=O)N[C@H](C(=O)N[C@@H](Cc1c[nH]c2ccccc12)C(=O)O)[C@@H](C)CC` displayed an IC50 of 6 nM.

With `CC[C@H](C)[C@H](NC(=O)[C@H](CC(=O)O)NC(=O)[C@@H](NC(=O)[C@H](NC(C)=O)C1c2ccccc2CCc2ccccc21)[C@@H](C)O)C(=O)N[C@H](C(=O)N[C@@H](Cc1c[nH]c2ccccc12)C(=O)O)[C@@H](C)CC`, the concentration for half-maximal inhibition (IC50) amounted to 4 nM.

For the compound `CC[C@H](C)[C@H](NC(=O)[C@H](CC(=O)O)NC(=O)[C@H](Cc1c[nH]c2ccccc12)NC(=O)[C@H](NC(C)=O)C1c2ccccc2CCc2ccccc21)C(=O)N[C@H](C(=O)N[C@@H](Cc1c[nH]c2ccccc12)C(=O)O)[C@@H](C)CC`, the IC50 is 11 nM.

For `CC[C@H](C)[C@H](NC(=O)[C@H](CC(=O)O)NC(=O)[C@H](CCCCN)NC(=O)[C@H](NC(C)=O)C1c2ccccc2CCc2ccccc21)C(=O)N[C@H](C(=O)N[C@@H](Cc1c[nH]c2ccccc12)C(=O)O)[C@@H](C)CC`, the IC50 was found to be 4 nM.

As to `CC[C@H](C)[C@H](NC(=O)[C@H](CC(=O)O)NC(=O)[C@@H]1CCCN1C(=O)[C@H](NC(C)=O)C1c2ccccc2CCc2ccccc21)C(=O)N[C@H](C(=O)N[C@@H](Cc1c[nH]c2ccccc12)C(=O)O)[C@@H](C)CC`, it took 6 nM to reach half-maximal inhibition (IC50).
